Reference: ChEMBL document CHEMBL5291721, “A preclinical secondary pharmacology resource illuminates target-adverse drug reaction associations of marketed drugs” (Nat Commun, 2023)

Key:
Mu-type opioid receptor = Mu-type opioid receptor (Homo sapiens, UniProt P35372)
[1] = molecular target: T1, Cholecystokinin receptor type A (Homo sapiens, UniProt P32238)
T1 sequence (P32238 whole entry): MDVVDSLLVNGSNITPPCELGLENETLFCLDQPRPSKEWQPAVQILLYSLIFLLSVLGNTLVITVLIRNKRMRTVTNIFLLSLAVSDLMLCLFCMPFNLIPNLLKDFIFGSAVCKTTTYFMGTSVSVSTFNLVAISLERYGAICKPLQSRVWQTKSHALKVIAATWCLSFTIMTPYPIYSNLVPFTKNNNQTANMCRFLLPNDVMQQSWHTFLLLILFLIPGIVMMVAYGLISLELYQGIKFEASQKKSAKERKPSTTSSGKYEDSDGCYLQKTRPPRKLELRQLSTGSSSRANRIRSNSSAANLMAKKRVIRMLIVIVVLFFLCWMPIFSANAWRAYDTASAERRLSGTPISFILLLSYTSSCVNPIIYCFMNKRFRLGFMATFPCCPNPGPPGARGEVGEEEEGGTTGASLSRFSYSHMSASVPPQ

Adenosine receptor A1 = molecular target: T2, Adenosine receptor A1 (Homo sapiens, UniProt P30542)
T2 sequence (P30542 whole entry): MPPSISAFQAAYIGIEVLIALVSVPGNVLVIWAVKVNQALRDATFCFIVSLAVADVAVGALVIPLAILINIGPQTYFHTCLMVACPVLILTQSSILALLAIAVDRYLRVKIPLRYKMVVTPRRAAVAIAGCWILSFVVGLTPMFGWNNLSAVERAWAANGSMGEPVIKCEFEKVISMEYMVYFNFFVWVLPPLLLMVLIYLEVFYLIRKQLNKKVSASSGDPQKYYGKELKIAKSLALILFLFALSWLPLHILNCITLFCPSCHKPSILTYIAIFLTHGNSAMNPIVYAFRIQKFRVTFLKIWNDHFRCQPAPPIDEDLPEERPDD

[2] = molecular target: Beta-1 adrenergic receptor (Homo sapiens, UniProt P08588); format: functional
Sequence of Beta-1 adrenergic receptor (P08588 whole entry): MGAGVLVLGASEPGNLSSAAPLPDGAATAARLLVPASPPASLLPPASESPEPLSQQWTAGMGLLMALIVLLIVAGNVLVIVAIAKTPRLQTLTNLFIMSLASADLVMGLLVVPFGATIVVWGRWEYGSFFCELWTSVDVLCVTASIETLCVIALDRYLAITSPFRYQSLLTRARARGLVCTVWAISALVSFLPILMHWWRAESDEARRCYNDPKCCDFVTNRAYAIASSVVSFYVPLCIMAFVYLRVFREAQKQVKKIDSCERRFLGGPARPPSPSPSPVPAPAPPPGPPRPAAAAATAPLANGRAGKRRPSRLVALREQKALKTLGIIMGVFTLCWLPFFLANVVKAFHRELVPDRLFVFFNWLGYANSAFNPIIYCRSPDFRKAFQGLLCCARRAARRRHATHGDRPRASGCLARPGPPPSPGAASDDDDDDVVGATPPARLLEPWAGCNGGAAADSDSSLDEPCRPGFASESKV

[3] = molecular target: Voltage-gated inwardly rectifying potassium channel KCNH2 (Homo sapiens, UniProt Q12809); format: functional
Sequence of Voltage-gated inwardly rectifying potassium channel KCNH2 (Q12809 whole entry): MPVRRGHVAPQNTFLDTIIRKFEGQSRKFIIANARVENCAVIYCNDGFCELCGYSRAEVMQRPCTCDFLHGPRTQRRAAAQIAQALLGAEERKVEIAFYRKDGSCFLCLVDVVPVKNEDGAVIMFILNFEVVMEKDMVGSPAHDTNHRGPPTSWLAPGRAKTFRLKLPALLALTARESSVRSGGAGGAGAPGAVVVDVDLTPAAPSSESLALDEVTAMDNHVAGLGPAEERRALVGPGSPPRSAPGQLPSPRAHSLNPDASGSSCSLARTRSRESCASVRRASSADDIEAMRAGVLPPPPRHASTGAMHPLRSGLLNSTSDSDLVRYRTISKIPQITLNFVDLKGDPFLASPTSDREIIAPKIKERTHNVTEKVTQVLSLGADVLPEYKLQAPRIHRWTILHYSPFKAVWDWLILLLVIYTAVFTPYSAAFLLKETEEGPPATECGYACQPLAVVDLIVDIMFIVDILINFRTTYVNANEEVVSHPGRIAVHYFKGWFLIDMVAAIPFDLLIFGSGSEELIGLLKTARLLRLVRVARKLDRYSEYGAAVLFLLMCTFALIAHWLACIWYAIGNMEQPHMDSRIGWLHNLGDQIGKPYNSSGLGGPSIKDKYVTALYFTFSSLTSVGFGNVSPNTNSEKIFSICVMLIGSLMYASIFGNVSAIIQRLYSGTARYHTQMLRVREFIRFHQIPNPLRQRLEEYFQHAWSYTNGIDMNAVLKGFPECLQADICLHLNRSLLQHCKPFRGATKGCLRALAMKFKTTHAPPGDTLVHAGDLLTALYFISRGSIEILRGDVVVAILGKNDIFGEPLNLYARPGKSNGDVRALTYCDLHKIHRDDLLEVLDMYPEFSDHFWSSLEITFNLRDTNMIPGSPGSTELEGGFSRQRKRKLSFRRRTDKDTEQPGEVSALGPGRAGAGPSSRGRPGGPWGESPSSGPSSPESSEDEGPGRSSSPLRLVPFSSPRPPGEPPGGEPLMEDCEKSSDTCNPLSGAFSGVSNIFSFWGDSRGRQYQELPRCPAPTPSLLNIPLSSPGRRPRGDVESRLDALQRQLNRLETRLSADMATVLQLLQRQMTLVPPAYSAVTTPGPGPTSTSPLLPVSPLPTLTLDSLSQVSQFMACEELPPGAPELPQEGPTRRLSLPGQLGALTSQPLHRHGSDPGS

[4] = molecular target: T3, Type-1 angiotensin II receptor (Homo sapiens, UniProt P30556)
T3 sequence (P30556 whole entry): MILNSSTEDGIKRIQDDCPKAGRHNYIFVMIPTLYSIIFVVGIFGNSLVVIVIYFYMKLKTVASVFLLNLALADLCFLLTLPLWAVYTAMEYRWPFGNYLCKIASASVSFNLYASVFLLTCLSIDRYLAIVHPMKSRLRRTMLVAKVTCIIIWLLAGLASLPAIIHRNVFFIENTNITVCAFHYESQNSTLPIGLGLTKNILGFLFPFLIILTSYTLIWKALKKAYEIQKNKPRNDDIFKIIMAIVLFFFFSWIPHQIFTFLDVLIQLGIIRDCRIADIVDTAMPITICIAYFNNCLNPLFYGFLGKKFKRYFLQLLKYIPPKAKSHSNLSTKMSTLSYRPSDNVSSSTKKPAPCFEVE

Cannabinoid receptor 1 = Cannabinoid receptor 1 (Homo sapiens, UniProt P21554); format: functional, cell-based
Sequence of Cannabinoid receptor 1 (P21554 whole entry): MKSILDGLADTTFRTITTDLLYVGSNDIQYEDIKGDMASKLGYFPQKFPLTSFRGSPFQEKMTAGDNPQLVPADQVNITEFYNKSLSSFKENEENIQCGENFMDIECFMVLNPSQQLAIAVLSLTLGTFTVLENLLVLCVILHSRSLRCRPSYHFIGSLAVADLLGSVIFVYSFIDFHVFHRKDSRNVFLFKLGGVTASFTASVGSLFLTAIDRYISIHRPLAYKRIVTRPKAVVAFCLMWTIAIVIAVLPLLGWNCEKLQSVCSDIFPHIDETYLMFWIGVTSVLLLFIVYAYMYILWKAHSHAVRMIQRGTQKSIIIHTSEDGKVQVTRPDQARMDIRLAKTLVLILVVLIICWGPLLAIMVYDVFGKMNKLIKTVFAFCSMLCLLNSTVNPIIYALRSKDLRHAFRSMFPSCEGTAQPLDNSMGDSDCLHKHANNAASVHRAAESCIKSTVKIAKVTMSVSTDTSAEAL

[5] = molecular target: T4, Alpha-1A adrenergic receptor (Homo sapiens, UniProt P35348); format: functional, cell-based
T4 sequence (P35348 whole entry): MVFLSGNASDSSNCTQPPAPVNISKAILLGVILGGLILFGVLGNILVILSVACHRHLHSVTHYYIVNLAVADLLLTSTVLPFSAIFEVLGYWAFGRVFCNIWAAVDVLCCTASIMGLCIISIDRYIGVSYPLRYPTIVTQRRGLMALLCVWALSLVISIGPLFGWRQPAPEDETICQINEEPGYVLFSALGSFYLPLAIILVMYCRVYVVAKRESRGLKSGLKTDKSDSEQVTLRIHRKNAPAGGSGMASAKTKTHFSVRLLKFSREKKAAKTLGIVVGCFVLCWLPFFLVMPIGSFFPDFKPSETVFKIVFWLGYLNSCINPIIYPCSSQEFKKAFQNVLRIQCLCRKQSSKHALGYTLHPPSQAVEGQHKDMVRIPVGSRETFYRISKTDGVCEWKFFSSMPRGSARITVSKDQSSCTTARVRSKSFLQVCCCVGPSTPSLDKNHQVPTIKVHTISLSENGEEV

[6] = molecular target: T5, Alpha-2B adrenergic receptor (Homo sapiens, UniProt P18089)
T5 sequence (P18089 whole entry): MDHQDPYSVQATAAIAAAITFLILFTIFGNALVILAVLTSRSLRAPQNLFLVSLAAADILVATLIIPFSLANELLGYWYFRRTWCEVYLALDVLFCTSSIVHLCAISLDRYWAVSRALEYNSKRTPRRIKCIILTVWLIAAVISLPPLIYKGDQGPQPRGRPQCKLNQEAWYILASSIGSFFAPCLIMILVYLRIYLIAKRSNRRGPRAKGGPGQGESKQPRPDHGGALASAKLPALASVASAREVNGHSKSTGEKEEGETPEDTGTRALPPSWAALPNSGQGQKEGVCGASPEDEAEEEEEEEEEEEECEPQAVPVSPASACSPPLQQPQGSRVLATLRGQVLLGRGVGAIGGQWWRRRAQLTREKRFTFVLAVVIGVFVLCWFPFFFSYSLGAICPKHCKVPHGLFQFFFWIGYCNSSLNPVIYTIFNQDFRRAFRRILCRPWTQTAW

[7] = molecular target: T6, Equilibrative nucleoside transporter 1 (Homo sapiens, UniProt Q99808)
T6 sequence (Q99808 whole entry): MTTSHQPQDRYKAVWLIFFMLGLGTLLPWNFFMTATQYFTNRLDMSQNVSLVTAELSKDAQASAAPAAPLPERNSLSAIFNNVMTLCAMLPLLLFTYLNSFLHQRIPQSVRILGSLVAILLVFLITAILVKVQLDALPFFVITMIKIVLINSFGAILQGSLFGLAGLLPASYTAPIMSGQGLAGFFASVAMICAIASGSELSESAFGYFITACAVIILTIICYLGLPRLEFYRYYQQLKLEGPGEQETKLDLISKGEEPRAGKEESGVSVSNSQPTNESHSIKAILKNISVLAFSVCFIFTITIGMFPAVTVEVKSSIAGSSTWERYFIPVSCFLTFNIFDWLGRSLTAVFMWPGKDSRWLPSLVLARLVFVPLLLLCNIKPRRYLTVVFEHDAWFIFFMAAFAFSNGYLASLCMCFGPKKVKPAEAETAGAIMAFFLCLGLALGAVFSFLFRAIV
Further: assay procedure not described here.

Sequence of Mu-type opioid receptor (P35372 whole entry): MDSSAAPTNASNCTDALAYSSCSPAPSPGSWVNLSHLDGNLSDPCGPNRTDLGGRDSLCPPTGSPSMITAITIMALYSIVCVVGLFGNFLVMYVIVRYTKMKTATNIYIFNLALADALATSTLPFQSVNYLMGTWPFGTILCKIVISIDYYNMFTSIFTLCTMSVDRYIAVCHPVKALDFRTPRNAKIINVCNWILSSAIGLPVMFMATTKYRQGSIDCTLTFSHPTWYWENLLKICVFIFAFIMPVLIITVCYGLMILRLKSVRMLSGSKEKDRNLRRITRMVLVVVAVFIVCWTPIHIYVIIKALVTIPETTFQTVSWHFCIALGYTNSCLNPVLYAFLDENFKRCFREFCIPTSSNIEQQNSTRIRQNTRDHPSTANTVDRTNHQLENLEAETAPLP

Compound	AC50 (Mu-type opioid receptor)	AC50 [1]	AC50 (Adenosine receptor A1)	AC50 [2]	AC50 ([3]; human, cellular components)	AC50 [4]	AC50 (Cannabinoid receptor 1)	AC50 [5]	AC50 [6]	AC50 [7]	AC50 ([3]; read-out: AC50)
TEPRENONE	> 30 µM	> 30 µM	> 30 µM	> 30 µM	> 30 µM	8.72 µM	> 30 µM	> 30 µM	> 10 µM		
O=C(C[S+]([O-])Cc1ccco1)NC/C=C\COc1cc(CN2CCCCC2)ccn1 (stereo unspecified) [LAFUTIDINE]	> 30 µM	> 10 µM	> 10 µM	> 10 µM		> 10 µM	> 30 µM	> 30 µM	> 10 µM	> 10 µM	> 30 µM
CCN(CC)C(C)C(=O)c1ccccc1 (stereo unspecified) [DIETHYLPROPION]	> 30 µM	> 30 µM	> 30 µM	> 10 µM		> 30 µM	> 30 µM	> 30 µM	13 µM	> 30 µM	6.5 µM
Cc1ccc(-c2ncc(Cl)cc2-c2ccc(S(C)(=O)=O)cc2)cn1 [ETORICOXIB]	> 10 µM	> 10 µM	> 10 µM	> 10 µM		> 10 µM	> 30 µM	> 30 µM	> 10 µM	> 30 µM	> 30 µM
CC(C)(N)Cc1ccccc1 [PHENTERMINE]	> 30 µM	> 30 µM	> 30 µM	> 10 µM		> 30 µM	> 30 µM	> 30 µM	> 10 µM	> 30 µM	> 30 µM
CCN(CC)CCCN(c1ccccc1)C1Cc2ccccc2C1 [APRINDINE]	19 µM	> 30 µM	> 30 µM	> 30 µM		> 30 µM	> 30 µM	14 µM	> 30 µM	> 30 µM	1 µM
CN1C(=O)CN=C(c2ccccc2F)c2cc([N+](=O)[O-])ccc21 [FLUNITRAZEPAM]	> 10 µM		> 30 µM	> 10 µM		> 30 µM	> 30 µM	> 30 µM	> 10 µM	> 30 µM	> 30 µM
CCC1(CC)C(=O)NC(=O)N(C)C1=O [METHARBITAL]	> 30 µM	> 10 µM	> 10 µM	> 10 µM		> 10 µM			> 10 µM	> 10 µM	> 30 µM
COc1ccc(-n2nc(C(N)=O)c3c2C(=O)N(c2ccc(N4CCCCC4=O)cc2)CC3)cc1 [APIXABAN]	> 30 µM	> 30 µM	> 30 µM	> 30 µM		> 30 µM	> 30 µM	> 30 µM	> 30 µM	26 µM	> 30 µM
